Literature values, collected in US6017948A, “Water-miscible pharmaceutical compositions” (Supergen, Inc., priority 1998, dated 2000).

Key:
animals = conditions: chronic high doses (more than 100 mg/kg)
breast cancer = conditions: single-agent phase II
[1] = system: previously untreated non-small-cell lung cancer; conditions: single-agent phase II
head and neck cancer = conditions: single-agent phase II
[2] = system: refractory ovarian cancer; conditions: single-agent phase II

Compound	toxic effects (animals)	effect on tubulin polymer / microtubule assembly (tubulin polymer)	response rates (complete and partial) (breast cancer)	response rates (complete and partial) [1]	response rates (complete and partial) (head and neck cancer)	response rates (complete and partial) [2]
CCCCC(CC)COC(=O)c1ccccc1C(=O)OCC(CC)CCCC (stereo not drawn) [DEHP, diethylhexylphthalate]	growth retardation, liver weight increase, liver damage, testicular atrophy, teratogenicity, and carcinogenicity	–	–	–	–	–
CC(=O)O[C@H]1C(=O)[C@@]2(C)[C@H]([C@H](OC(=O)c3ccccc3)[C@]3(O)C[C@H](OC(=O)[C@H](O)[C@@H](NC(=O)c4ccccc4)c4ccccc4)C(C)=C1C3(C)C)[C@]1(OC(C)=O)CO[C@@H]1C[C@@H]2O [paclitaxel]	–	stabilizes the tubulin polymer and promotes microtubule assembly	Encouraging response rates	Encouraging response rates	Encouraging response rates	Encouraging response rates
